{"source": "patent US20250376479A1", "about": "“EXATECAN DERIVATIVES AND USES THEREOF” (priority 2024, published 2025)", "data": [{"tested_on": "NCI-H524", "test": "Cytotoxicity test, luminescent cell viability", "type": "cell-based", "details": "Homo sapiens; NCI-H524 (SCLC), 72-hour incubation", "from_the_text": "(§1) Cytotoxicity of compounds was investigated using SHP77 (SCLC ATCC No. CRL-2195), NCI-H82 (SCLC, Jennio-bio No. JNO-22126A), NCI-H524 (SCLC, Pricella NO. CL-0403), NCI-H226 (Lung cancer, Pricella NO. CL-0396), NCI-H460 (LCLC, Pricella NO. CL-0299), OVCAR3 (Ovarian cancer, ATCC No. HTB-161), OV90 (Ovarian cancer, ATCC No. CRL-11732), LS1034 (Colon carcinoma, cobioer No. CBP60013), HT55 (Colon carcinoma, cobioer No. CBP60012), MDA-MB-468 (Breast cancer, ATCC No.htb-132) and NCI-N87 (Stomach cancer, ATCC No.CRL-5822). In brief, 5,000 cells/well of cancer cells were platted in white 96-well assay plates with flat clear bottom (Cat. No. BS-MP-96W, Biosharp) (excluding edge wells, which contained medium or PBS only) in 90 μL basic culture medium and were grown at 37° C. in a humidified incubator at 5% CO2 atmosphere. After incubation overnight, each compound was added to the respective wells in an amount of 10 μl of 10× concentrate tests from 100 nM to 0.015 nM. After additional 72-hour incubation, plates were removed from incubator and equilibrated to room temperature. After approximately 30 mins, 50 μL of Cell counting-lite 2.0 Luminescent Cell Viability Assay (Cat. No. G7573, Promega) were added to each well. After shaking the plates at 450 rpm for 3 mins followed by 10-min incubation without shaking, luminescence was measured on the Envision plate reader (Equipment No. 2104, PerkinElmer) with integration time of 250 ms per well. Curves of luminescence versus concentration (nM) were fitted with GraphPad Prism Software.", "units": {"IC50": "µM"}, "values": [{"smiles": "CC[C@@]1(O)C(=O)OCc2c1cc1n(c2=O)Cc2c-1nc1cc(F)c(C)c3c1c2[C@H](NC(=O)C(C)C)CC3", "note": "[Compound 10]", "IC50": 0.0179}, {"smiles": "CCCCC(=O)N[C@@H]1CCc2c(C)c(F)cc3nc4c(c1c23)Cn1c-4cc2c(c1=O)COC(=O)[C@]2(O)CC", "note": "[Compound 1]", "IC50": 0.0044}]}, {"tested_on": "NCI-H82", "test": "Cytotoxicity test, luminescent cell viability", "type": "cell-based", "details": "Homo sapiens; NCI-H82 (SCLC), 72-hour incubation", "from_the_text": "as §1", "units": {"IC50": "µM"}, "values": [{"smiles": "CC[C@@]1(O)C(=O)OCc2c1cc1n(c2=O)Cc2c-1nc1cc(F)c(C)c3c1c2[C@H](NC(=O)C(C)C)CC3", "note": "[Compound 10]", "IC50": 0.0617}, {"smiles": "CCCCC(=O)N[C@@H]1CCc2c(C)c(F)cc3nc4c(c1c23)Cn1c-4cc2c(c1=O)COC(=O)[C@]2(O)CC", "note": "[Compound 1]", "IC50": 0.096}]}, {"tested_on": "MDA-MB-468", "test": "Cytotoxicity test, luminescent cell viability", "type": "cell-based", "details": "Homo sapiens; MDA-MB-468 (Breast cancer), 72-hour incubation", "from_the_text": "as §1", "units": {"IC50": "µM"}, "values": [{"smiles": "CC[C@@]1(O)C(=O)OCc2c1cc1n(c2=O)Cc2c-1nc1cc(F)c(C)c3c1c2[C@H](NC(=O)C(C)C)CC3", "note": "[Compound 10]", "IC50": 0.0029}, {"smiles": "CCCCC(=O)N[C@@H]1CCc2c(C)c(F)cc3nc4c(c1c23)Cn1c-4cc2c(c1=O)COC(=O)[C@]2(O)CC", "note": "[Compound 1]", "IC50": 0.0025}]}, {"tested_on": "NCI-H226", "test": "Cytotoxicity test, luminescent cell viability", "type": "cell-based", "details": "Homo sapiens; NCI-H226 (Lung cancer), 72-hour incubation", "from_the_text": "as §1", "units": {"IC50": "µM"}, "values": [{"smiles": "CC[C@@]1(O)C(=O)OCc2c1cc1n(c2=O)Cc2c-1nc1cc(F)c(C)c3c1c2[C@H](NC(=O)C(C)C)CC3", "note": "[Compound 10]", "IC50": 0.0051}, {"smiles": "CCCCC(=O)N[C@@H]1CCc2c(C)c(F)cc3nc4c(c1c23)Cn1c-4cc2c(c1=O)COC(=O)[C@]2(O)CC", "note": "[Compound 1]", "IC50": 0.0048}]}, {"tested_on": "LS1034", "test": "Cytotoxicity test, luminescent cell viability", "type": "cell-based", "details": "Homo sapiens, LS-1034; LS1034 (Colon carcinoma), 72-hour incubation", "from_the_text": "as §1", "units": {"IC50": "µM"}, "values": [{"smiles": "CC[C@@]1(O)C(=O)OCc2c1cc1n(c2=O)Cc2c-1nc1cc(F)c(C)c3c1c2[C@H](NC(=O)C(C)C)CC3", "note": "[Compound 10]", "IC50": 0.114}, {"smiles": "CCCCC(=O)N[C@@H]1CCc2c(C)c(F)cc3nc4c(c1c23)Cn1c-4cc2c(c1=O)COC(=O)[C@]2(O)CC", "note": "[Compound 1]", "IC50": 0.0635}]}, {"tested_on": "HT55", "test": "Cytotoxicity test, luminescent cell viability", "type": "cell-based", "details": "Homo sapiens; HT55 (Colon carcinoma), 72-hour incubation", "from_the_text": "as §1", "units": {"IC50": "µM"}, "values": [{"smiles": "CC[C@@]1(O)C(=O)OCc2c1cc1n(c2=O)Cc2c-1nc1cc(F)c(C)c3c1c2[C@H](NC(=O)C(C)C)CC3", "note": "[Compound 10]", "IC50": 0.0696}, {"smiles": "CCCCC(=O)N[C@@H]1CCc2c(C)c(F)cc3nc4c(c1c23)Cn1c-4cc2c(c1=O)COC(=O)[C@]2(O)CC", "note": "[Compound 1]", "IC50": 0.13}]}, {"tested_on": "SHP77", "test": "Cytotoxicity test, luminescent cell viability", "type": "cell-based", "details": "Homo sapiens; SHP77 (SCLC), 72-hour incubation", "from_the_text": "as §1", "units": {"IC50": "µM"}, "values": [{"smiles": "CC[C@@]1(O)C(=O)OCc2c1cc1n(c2=O)Cc2c-1nc1cc(F)c(C)c3c1c2[C@H](NC(=O)C(C)C)CC3", "note": "[Compound 10]", "IC50": 0.101}, {"smiles": "CCCCC(=O)N[C@@H]1CCc2c(C)c(F)cc3nc4c(c1c23)Cn1c-4cc2c(c1=O)COC(=O)[C@]2(O)CC", "note": "[Compound 1]", "IC50": 0.0457}]}, {"tested_on": "NCI-N87", "test": "Cytotoxicity test, luminescent cell viability", "type": "cell-based", "details": "Homo sapiens; NCI-N87 (Stomach cancer), 72-hour incubation; read-out: IC50 NC-N87", "from_the_text": "as §1", "units": {"IC50": "µM"}, "values": [{"smiles": "CC[C@@]1(O)C(=O)OCc2c1cc1n(c2=O)Cc2c-1nc1cc(F)c(C)c3c1c2[C@H](NC(=O)C(C)C)CC3", "note": "[Compound 10]", "IC50": 0.0052}, {"smiles": "CCCCC(=O)N[C@@H]1CCc2c(C)c(F)cc3nc4c(c1c23)Cn1c-4cc2c(c1=O)COC(=O)[C@]2(O)CC", "note": "[Compound 1]", "IC50": 0.0062}]}, {"tested_on": "NCI-H460", "test": "Cytotoxicity test, luminescent cell viability", "type": "cell-based", "details": "Homo sapiens; NCI-H460 (LCLC), 72-hour incubation", "from_the_text": "as §1", "units": {"IC50": "µM"}, "values": [{"smiles": "CC[C@@]1(O)C(=O)OCc2c1cc1n(c2=O)Cc2c-1nc1cc(F)c(C)c3c1c2[C@H](NC(=O)C(C)C)CC3", "note": "[Compound 10]", "IC50": 0.0074}, {"smiles": "CCCCC(=O)N[C@@H]1CCc2c(C)c(F)cc3nc4c(c1c23)Cn1c-4cc2c(c1=O)COC(=O)[C@]2(O)CC", "note": "[Compound 1]", "IC50": 0.0102}]}, {"tested_on": "OVCAR3", "test": "Cytotoxicity test, luminescent cell viability", "type": "cell-based", "details": "Homo sapiens, OVCAR-3; OVCAR3 (Ovarian cancer), 72-hour incubation", "from_the_text": "as §1", "units": {"IC50": "µM"}, "values": [{"smiles": "CC[C@@]1(O)C(=O)OCc2c1cc1n(c2=O)Cc2c-1nc1cc(F)c(C)c3c1c2[C@H](NC(=O)C(C)C)CC3", "note": "[Compound 10]", "IC50": 0.0681}, {"smiles": "CCCCC(=O)N[C@@H]1CCc2c(C)c(F)cc3nc4c(c1c23)Cn1c-4cc2c(c1=O)COC(=O)[C@]2(O)CC", "note": "[Compound 1]", "IC50": 0.0929}]}, {"tested_on": "OV90", "test": "Cytotoxicity test, luminescent cell viability", "type": "cell-based", "details": "Homo sapiens, OV-90; OV90 (Ovarian cancer), 72-hour incubation", "from_the_text": "as §1", "units": {"IC50": "µM"}, "values": [{"smiles": "CC[C@@]1(O)C(=O)OCc2c1cc1n(c2=O)Cc2c-1nc1cc(F)c(C)c3c1c2[C@H](NC(=O)C(C)C)CC3", "note": "[Compound 10]", "IC50": 0.0098}, {"smiles": "CCCCC(=O)N[C@@H]1CCc2c(C)c(F)cc3nc4c(c1c23)Cn1c-4cc2c(c1=O)COC(=O)[C@]2(O)CC", "note": "[Compound 1]", "IC50": 0.0039}]}, {"tested_on": "not listed separately", "test": "Membrane permeability test (Caco-2 monolayer)", "type": "in vitro ADME", "details": "human, Caco-2, pH 7.4", "description": "Caco-2 cells purchased from ATCC were seeded onto 0.4 μm pore polycarbonate membranes (PC) in 96-well Corning Insert plates at 3.5×10^4 cells/cm^2, and refreshed medium every 4˜5 days until to the 21st to 28th day for confluent cell monolayer formation.\nThe transport buffer in the study was HBSS with 10.0 mM HEPES at pH 7.40±0.05. Each test compound was tested at 2.00 μM in the presence or absence of 1.00 μM zosuquidar bi-directionally in duplicate. Digoxin was tested at 10.0 μM in the presence or absence of 1.00 μM zosuquidar bi-directionally in duplicate, while nadolol and metoprolol were tested at 2.00 μM in the absence of zosuquidar in A to B direction in duplicate. Final DMSO concentration was adjusted to less than 1%. The plate was incubated for 2 hours in CO2 incubator at 37.0° C., with 5% CO2 at saturated humidity without shaking. And all samples after mixed with acetonitrile containing internal standard were centrifuged at 3220×g for 10 min. Concentrations of test compounds in starting solution, donor solution and receiver solution were quantified by LC-MS/MS methodologies, using peak area ratio of analyte/internal standard. And permeation of lucifer yellow through the monolayer was measured to evaluate the cellular integrity.\nThe apparent permeability coefficient Papp (cm/s) was calculated using the equation: […]\nwhere dCr/dt is the cumulative concentration of compound in the receiver chamber as a function of time; Vr is the solution volume in the receiver chamber (0.0750 mL on the apical side, 0.250 mL on the basolateral side); A is the surface area for the transport, i.e., 0.143 cm2 for the area of the monolayer; C0 is the initial concentration in the donor chamber.", "units": {"Papp A→B at 2 h, 2 μM": "nm/s"}, "values": [{"smiles": "CC[C@@]1(O)C(=O)OCc2c1cc1n(c2=O)Cc2c-1nc1cc(F)c(C)c3c1c2[C@H](NC(=O)C(C)C)CC3", "note": "[Compound 10]", "Papp A→B at 2 h, 2 μM": 3.58}, {"smiles": "CCCCC(=O)N[C@@H]1CCc2c(C)c(F)cc3nc4c(c1c23)Cn1c-4cc2c(c1=O)COC(=O)[C@]2(O)CC", "note": "[Compound 1]", "Papp A→B at 2 h, 2 μM": 3.65}]}]}
